Measurements published in patent EP2815749A1, “Solid form of 4-amino-2-(2,6-dioxopiperidine-3-yl)isoindoline-1,3-dione having specified X-ray diffraction pattern” (IP Gesellschaft für Management mbH, priority 2013, dated 2014).
Structures can show the parent of a compound that is named as a salt. Where two headings read alike, the source gives them in different places.

Legend:
[1] = water; listed as free base
Method: Hygroscopicity: Sorption/desorption isotherms were measured using the VT1100 humidity microbalance (VTI Corporation, Hialeah, FL, USA). Measurements were carried out at 25°C. Samples were dried under N2 flow at 25°C. […] Concentration in supernatant was measured by gravimetry for organic solvents and by HPLC from aqueous solvents and propylene glycol.

[2] = physchem; settings: thermodynamic from solid
[3] = Hygroscopicity of forms of Compound of formula (V) (DVS); type: physicochemical; settings: between 0% and 90% relative humidity; 25°C
Method: Differential Scanning Calorimetry (DSC): DSC analyses were performed on a TA instrument Q2000 Differential Scanning Calorimeter. Indium was used as the calibration standard. Approximately 2-5 mg of sample was placed into a DSC pan. The sample was heated under nitrogen at a rate of 10°C/min, up to a final temperature of 350°C. Melting points were reported as the extrapolated onset temperatures. Thermogravimetric Analysis (TGA): TGA analyses were performed on a TA instrument Q5000 Thermogravimetric Analyzer. Calcium oxalate was used for a performance check. Approximately 2-10 mg of accurately weighed sample was placed on a pan and loaded into the TGA furnace. The sample was heated under nitrogen at a rate of 10°C/min, up to a final temperature of 300°C. Attenuated Total Reflection Fourier-Transform Infrared Analysis (ATR-FTIR): FTIR analyses were performed on the samples "as is" using an attenuated total reflection (ATR) attachment on a Nicolet 6700 FTIR spectrometer. After a background of ambient lab conditions was obtained, samples were placed on the ATR, compressed with the anvil, and spectrum acquired. Miniature Scanning Electron Microscope (Mini SEM) Morphology analysis of the samples was carried out on an Even Mini SEM. Small amounts of samples were dispersed on a sample holder, and then coating with gold viewed with 200x and 1000x magnification. Dynamic Vapor Sorption (DVS) Hygroscopicity was determined on a Surface Measurement Systems DVS. Typically a sample size of 5-30 mg was loaded into the DVS instrument sample pan and the sample was analyzed on a DVS automated sorption analyzer at 25°C. The relative humidity was increased from 0 % to 90 %RH at 10 %RH step. The relative humidity was then decreased in a similar manner to accomplish a full adsorption/desorption cycle. The entire scope of this invention is not limited by the specific examples described herein, but is more readily understood with reference to the appended claims.

[4] = Equilibration and form conversion experiments of Compound of formula (V); type: physicochemical; settings: for Form by XRPD after equilibration: Ambient, 8 days
Method: Equilibration: Equilibration studies using single, binary and ternary combinations of batch solvents (water, acetone, and acetonitrile) were investigated to mimic key steps in manufacturing 3-(4-nitro-1-oxoisoindolin-2-yl)piperidine-2,6-dione. Materials of 3-(4-nitro-1-oxoisoindolin-2-yl)piperidine-2,6-dione and solvent or solvent mixtures were added to a glass vial to achieve free-flowing slurry and allowed to equilibrate at the specified temperature. After equilibration for 8 days, the solid phase was separated via filtration. The solid phase was then dried under air and analyzed by XRPD. List of Experimental Conditions for Equilibration:
A total of four batches of 3-(4-nitro-1-oxoisoindolin-2-yl)piperidine-2,6-dione were characterized by XRPD, DSC, TGA, ATR-FTIR and DVS, as described in section 6.5. The solid form represented by the batch 1 was designated as Form A ({drug5b}); the solid form represented by the batch 4 was designated as Form B ({drug5c}); the batches 2 and 3 were determined to be mixtures of Forms A and B, with Form B ({drug5c}) dominating the patterns. The equilibration experiments were performed using batches 2, 3 and 4, and the results are described in Table 2. Results for Equilibration Experiments:
Results from Additional Form conversion Experiments: […]

[5] = as above; type: physicochemical; settings: for Form by XRPD after equilibration: 6 hours
[6] = Desolvation of solvate forms of Compound (VII); type: physicochemical
Method: Polymorph screening: A polymorph screen was conducted in the methylethyl ketone (MEK)/ water solvent systems, as well as in the acetonitrile (ACN), ACN/water and isopropyl acetate solvent systems. Polymorph screening techniques included crash cooling, solvent evaporation, antisolvent addition, and slurry experiments. Slurry experiments were performed on an IKA RCT hot plate with magnetic stirring set to 710 rpm. The temperature was controlled with an IKA ETS-D5 thermocouple. Solvent volumes were measured and transferred with Gibson Pipetteman volumetric pipettes. New forms that were identified as solvates were subjected to desolvation under two potential conditions: (1) drying in a vacuum oven at 40°C and (2) sitting undisturbed under ambient conditions in a fume hood. Physical characterization of all forms proceeded by X-ray powder diffraction (XRPD) and thermogravimetric analysis (TGA).
Experiment 6: Desolvation: New forms of Compound (VII) obtained in the polymorph screen suspected of being solvates were subjected to further form investigation through attempted desolvation. Forms D, E, F, G, H, I, J, K, L and Hydrate A were left to stand open to the atmosphere under ambient conditions and or were placed in a vacuum oven. […] Forms D and K produced new crystalline XRPD patterns following desolvation. […] In some embodiments, Form R ({drug7p}) is characterized by one or more peaks in an XRPD spectrum selected from the peaks listed in Table 20. Form R ({drug7p}) Peak List:
In some embodiments, Form S ({drug7q}) is characterized by one or more peaks in an XRPDspectrum selected from the peaks listed in Table 21.

[7] = Salt screening and crystalline salt characterization of Compound (VI); settings: for Hygroscopicity: ambient temperature and relative humidity conditions
Method: The screening examined acid type, acid level (equivalents), and/or type of crystallization solvent. Each plate contained 96 well plates (8 rows of 12 columns per plate). […] The solution (12.5 mL) was transferred to 24 vials. To each vial was added 0.25 M EtOH stock solutions of the following acids:
The content of each vial was transferred to 12 crystallization wells and evaporated to dryness. Upon evaporation, each well was charged with 100 µl of solvent using a robotic liquid handler. The following crystallization solvents were tested: methyl isobutyl ketone (MIBK), ethyl acetate, toluene, THF, acetonitrile, acetone, isopropanol, ethanol, methanol, 1,2-dichloroethylene, isopropanol/water (50:50), and water. Next, the plates were sealed with Teflon septa and subjected to temperature cycling. […] After the heating/cooling cycle, the contents of the wells were characterized by birefringent imaging. Perceived crystalline hits were further characterized by PXRD analysis.

Molecule: N#Cc1ccc([C@H]2CCc3cncn32)c(F)c1 [Compound (III), 4-(R)-(6,7-Dihydro-5H-pyrrolo[1,2-c]imidazol-5-yl)-3-fluoro-benzonitrile]
- Solubility in water at the 0.1% target concentration [1]: largely insoluble
- Moisture gain (r.h. 0%): 0.0%
- Moisture gain (r.h. 5%): 0.0%
- Moisture gain (r.h. 25%, listed as free base): 0.1%
- Moisture gain (r.h. 50%, listed as free base): 0.2%
- Moisture gain (r.h. 75%, listed as free base): 0.3%
- Moisture gain (r.h. 85%, listed as free base): 0.5%
- Moisture gain (r.h. 95%, listed as free base): 1.0%
- solubility ([2]; acetone, 25 °C, organic solvent or mixture): > 50 mg/mL
- solubility ([2]; aqueous solvent, pH 1, 25 °C, pH 1, simulated gastric fluid, pH 1): > 50 mg/mL
- solubility ([2]; ethanol, 25 °C, organic solvent or mixture): > 50 mg/mL
- solubility ([2]; ethyl acetate, 25 °C, organic solvent or mixture): > 50 mg/mL

Molecule: O=C1CCC(N2Cc3c(cccc3[N+](=O)[O-])C2=O)C(=O)N1 (centres unmarked) [Form A ({drug5b}), 3-(4-nitro-1-oxoisoindolin-2-yl)piperidine-2,6-dione]
- total mass change [3]: 0.42%
- Form conversion to other forms ([4]; form conversion studies): no conversion

Molecule: O=C1CCC(N2Cc3c(cccc3[N+](=O)[O-])C2=O)C(=O)N1 (centres unmarked) [Form B ({drug5c}), 3-(4-nitro-1-oxoisoindolin-2-yl)piperidine-2,6-dione]
- total mass change [3]: 0.39%
- Form by XRPD after equilibration ([4]; Acetone/water (1:1)): converts to Form A
- Form by XRPD after equilibration ([4]; Acetonitrile/water (1:1)): converts to Form A
- Form by XRPD after equilibration ([4]; Acetonitrile/water/acetone (1:1:1)): converts to Form A
- Form by XRPD after equilibration ([4]; acetone): converts to Form A
- Form by XRPD after equilibration ([4]; water): converts to Form A
- Form by XRPD after equilibration ([5]; Acetonitrile, 80 °C (or reflux)): converts to Form A
- Form by XRPD after equilibration ([5]; Acetonitrile/water (2:1), 60 °C): converts to Form A
- XRPD Result after form conversion experiment ([5]; Heated to 220 °C for 4 hours): converts to Form A

Molecule: NC1(C(=O)N[C@@H](CCO)c2ccc(Cl)cc2)CCN(c2ncnc3[nH]ccc23)CC1 [Form B, (S)-4-amino-N-(1-(4-chlorophenyl)-3-hydroxypropyl)-1-(7H-pyrrolo[2,3-d]pyrimidin-4-yl)piperidine-4-carboxamide]
- XRPD Result after form conversion experiment ([5]; Heated to 220 °C for 4 hours): Form A

Molecule: O=C1CCC(N2Cc3c(cccc3[N+](=O)[O-])C2=O)C(=O)N1 (centres unmarked) [Form C ({drug5d}), 3-(4-nitro-1-oxoisoindolin-2-yl)piperidine-2,6-dione]
- total mass change [3]: 0.43%
- XRPD Result after form conversion experiment ([5]; Heated to 220 °C for 4 hours): partially converts to Form A
- Form conversion ([5]; ambient temperature, NMP/acetone/water (1:2.5:2.5), time not stated): converts to Form A

Molecule: NC1(C(=O)N[C@@H](CCO)c2ccc(Cl)cc2)CCN(c2ncnc3[nH]ccc23)CC1 [Form C, (S)-4-amino-N-(1-(4-chlorophenyl)-3-hydroxypropyl)-1-(7H-pyrrolo[2,3-d]pyrimidin-4-yl)piperidine-4-carboxamide]
- XRPD Result after form conversion experiment ([5]; Heated to 220 °C for 4 hours): Form A+C
- XRPD Result after form conversion experiment ([5]; Slurry in NMP/Acetone/water at ambient for 5 days): Form A+C
- XRPD Result after form conversion experiment ([5]; Slurry in NMP/Acetone/water at ambient for 10 days): Form A+C

Molecule: CC(C)(C)c1cc(C(C)(C)C)c(NC(=O)c2c[nH]c3ccccc3c2=O)cc1O [Form D ({drug7b}), N-[2,4-bis(1,1-dimethylethyl)-5-hydroxyphenyl]-1,4-dihydro-4-oxoquinoline-3-carboxamide]
- XRPD pattern after attempted desolvation ([6]; ambient conditions and vacuum oven for approximately 1 month): converted to a new crystalline form of Compound (VII) designated Form R

Molecule: CC(C)(C)c1cc(C(C)(C)C)c(NC(=O)c2c[nH]c3ccccc3c2=O)cc1O [Form E ({drug7c}), N-[2,4-bis(1,1-dimethylethyl)-5-hydroxyphenyl]-1,4-dihydro-4-oxoquinoline-3-carboxamide]
- XRPD pattern after attempted desolvation ([6]; standing under ambient conditions and sitting in the vacuum oven): same XRPD patterns

Molecule: CC(C)(C)c1cc(C(C)(C)C)c(NC(=O)c2c[nH]c3ccccc3c2=O)cc1O [Form G ({drug7e}), N-[2,4-bis(1,1-dimethylethyl)-5-hydroxyphenyl]-1,4-dihydro-4-oxoquinoline-3-carboxamide]
- XRPD pattern after attempted desolvation ([6]; vacuum oven for one month): became x-ray amorphous

Molecule: CC(C)(C)c1cc(C(C)(C)C)c(NC(=O)c2c[nH]c3ccccc3c2=O)cc1O [Form H ({drug7f}), N-[2,4-bis(1,1-dimethylethyl)-5-hydroxyphenyl]-1,4-dihydro-4-oxoquinoline-3-carboxamide]
- XRPD pattern after attempted desolvation ([6]; ambient conditions for one month): same Form H
- XRPD pattern after attempted desolvation ([6]; vacuum oven for one month): converted to a semi-crystalline form

Molecule: CC(C)(C)c1cc(C(C)(C)C)c(NC(=O)c2c[nH]c3ccccc3c2=O)cc1O [Form K ({drug7i}), N-[2,4-bis(1,1-dimethylethyl)-5-hydroxyphenyl]-1,4-dihydro-4-oxoquinoline-3-carboxamide]
- XRPD pattern after attempted desolvation ([6]; ambient conditions and vacuum oven for 2 months): converted to a new crystalline form of Compound (VII) designated Form S

Molecule: CC(C)(C)c1cc(C(C)(C)C)c(NC(=O)c2c[nH]c3ccccc3c2=O)cc1O [Form L ({drug7j}), N-[2,4-bis(1,1-dimethylethyl)-5-hydroxyphenyl]-1,4-dihydro-4-oxoquinoline-3-carboxamide]
- XRPD pattern after attempted desolvation ([6]; ambient conditions for two weeks): same Form L
- XRPD pattern after attempted desolvation ([6]; vacuum oven for 24 hours): converted to x-ray amorphous

Molecule: N#Cc1ccc([C@H]2CCc3cncn32)c(F)c1 [HCl, 4-(R)-(6,7-dihydro-5H-pyrrolo[1,2-c]imidazol-5-yl)-3-fluoro-benzonitrile, reference compound]
- Moisture gain (r.h. 25%): 0.5%
- Moisture gain (r.h. 50%): 0.2%
- Moisture gain (r.h. 75%): 0.2%
- Moisture gain (r.h. 85%): 3.3%
- Moisture gain (r.h. 95%): 23.6%

Molecule: Cl [Hydrochloric acid]
- Hygroscopicity [7]: Crystalline salt; crystals were hygroscopic at ambient temperatures and relative humidity conditions; crystalline salt samples included multiple hydration states and multiple crystalline forms. Solid state NMR indicated that prepared samples contained mixture of crystalline phases.
- Hygroscopicity ([7]; listed as hydrochloric acid salt): hygroscopic

Molecule: Citric acid
- Hygroscopicity [7]: Crystalline salt; hygroscopic at ambient temperature and relative humidity conditions. PXRD patterns of slurry and dried material did not match.
- Hygroscopicity ([7]; listed as citric acid salt): hygroscopic

Molecule: Fumaric acid
- water content of samples ([7]; >25% relative humidity): ~6 wt. %
- Hygroscopicity [7]: hygroscopic at ambient temperature and relative humidity conditions
- Hygroscopicity ([7]; listed as fumaric acid salt): hygroscopic
